# Tests used:
# [1] = target: T1, ligand binding domain of ERRγ (Homo sapiens, UniProt P62508); assay: ThermoFluor thermal shift assay, ERRγ ligand binding domain; details: 0.1 mg/mL protein, 25 mM HEPES pH 8.0, Tm free protein 49.6 °C
# T1 construct: 6His; made in house; host or cells: E. coli BL21(DE3)
# T1 sequence (P62508 229-458): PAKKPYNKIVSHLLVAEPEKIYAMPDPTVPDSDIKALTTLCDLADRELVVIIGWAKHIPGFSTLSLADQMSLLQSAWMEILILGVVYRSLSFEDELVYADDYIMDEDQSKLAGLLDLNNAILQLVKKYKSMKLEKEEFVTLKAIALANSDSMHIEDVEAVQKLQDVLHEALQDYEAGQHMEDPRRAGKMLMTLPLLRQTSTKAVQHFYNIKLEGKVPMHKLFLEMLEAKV
# Method: The vector was in E. coli BL21(DE3) and cultured in Minimal media (M9) at 37° C. to an OD595 0.6-0.8, followed by induction at 15° C. with 0.4 mM IPTG for 20 hours. The next day, the culture was harvested and lysed in buffer A (Buffer A: 20 mM Tris-HCl, pH 7.5, 0.4 M NaCl and 5 mM Imidazole) using an Emulsiflex-C5 french press (Avestin). Lysates were spun at 40,000×g for 45 minutes to remove insoluble material. The clarified lysate was applied on a Ni-NTA column and eluted with a linear gradient of imidazole. The protein was further purified by applying the eluent on a Superdex 200 HR 10/30 column (Amersham Pharmacia Biotech) equilibrated with Buffer B (Buffer B: 20 mM Tris-HCl pH 7.5, 0.2M NaCl, 1 mM EDTA and 1 mM DTT). […] Fractions were pulled and concentrated to 4 mg/ml and frozen in liquid nitrogen and stored at −80° C.
# The ligand binding domain of ERRγ was screened against a library of known estrogen activators and a generic drug library using ThermoFluor®. ThermoFluor® is a miniaturized thermal shift assay, that has been developed for HTS applications; as a secondary assay for confirmation and characterization of hits; and as a functional assay to characterize orphan proteins. ThermoFluor® exploits the well-described phenomenon of ligand induced stabilization of macromolecules. Ligand binding energy adds directly to the ground state energy of a macromolecule and results in increased thermal stability. The degree of stabilization is proportional to the binding affinity of the ligand for the macromolecule.
# Assay plates were prepared by dispensing 2 μL of a protein-dye solution and 2 μL of the test compound in a 384-well plate. […] Finally 1 μL of mineral oil was dispensed on top to prevent evaporation during the high throughput screen (HTS). ThermoFluor® is an HTS assay that measures protein unfolding based on fluorescence detection of the denatured form of the protein. The reporter for the protein unfolding event is the environmentally sensitive dye ANS that is incorporated in the screening buffer. During a typical experiment the 384-well plate is heated at a ramping rate of 1° C./min and the thermal unfolding of the protein is monitored at 1° C. intervals by measuring fluorescence changes detected through a CCD camera. Captured images are integrated and a melting curve is generated that relates fluorescence to fraction of unfolded protein as a function of temperature. […] Hits were identified from the screen by measuring an increase in the melting temperature of the protein.
# In order to estimate binding affinities, it was taken into account that the oligomeric state of ERRγ which is a dimer (N2), and that of a single ligand (Lf) can interact per monomer subunit with equal affinity. The melting curve for such a system is described by the following three equilibria:
# To compare dissociation constants at a common reference temperature, Tref, the following equation was used: […]
# In the thermodynamic treatment of the data the following assumptions were made: i) the small ligand interacts only with the folded state of the protein, ii) the reactions are reversible; iii) the unfolding protein reaction is a two-state process and iv) ideal dilute solutions are being used (specific activity for protein and ligands is equal to 1).
# [2] = target: T2, ERRα (Homo sapiens, UniProt P11474); assay: ThermoFluor thermal shift assay, ERRα; format: binding; details: 100 μM test compound; 0.1 mg/mL protein, 25 mM HEPES pH 8.0, 25 μM ANS, 2% DMSO; Tm free protein 54.4 °C; read-out: ΔTm, thermal stabilization of ERRα
# T2 sequence (P11474 193-421 limits assumed): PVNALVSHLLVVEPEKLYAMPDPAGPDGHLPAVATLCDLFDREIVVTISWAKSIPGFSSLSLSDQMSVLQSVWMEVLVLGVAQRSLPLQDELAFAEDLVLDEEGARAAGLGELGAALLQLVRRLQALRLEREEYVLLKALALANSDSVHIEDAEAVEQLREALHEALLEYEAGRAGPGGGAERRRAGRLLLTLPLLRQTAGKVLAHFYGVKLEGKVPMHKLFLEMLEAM
# [3] = target: T3, ERRβ (Homo sapiens, UniProt O95718); assay: ThermoFluor thermal shift assay, ERRβ; format: binding; details: 100 μM test compound; 0.1 mg/mL protein, 25 mM HEPES pH 8.0; Tm free protein 47.5 °C; read-out: ΔTm, thermal stabilization of ERRβ
# T3 sequence (O95718 208-432 limits assumed): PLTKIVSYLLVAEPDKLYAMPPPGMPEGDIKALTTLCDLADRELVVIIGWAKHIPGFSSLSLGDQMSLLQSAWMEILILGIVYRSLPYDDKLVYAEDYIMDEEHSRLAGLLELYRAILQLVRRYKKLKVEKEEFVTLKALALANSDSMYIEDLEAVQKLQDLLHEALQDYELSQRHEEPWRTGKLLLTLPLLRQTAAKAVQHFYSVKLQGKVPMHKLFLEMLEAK
# [4] = target: ERβ (Homo sapiens, UniProt Q92731); assay: ThermoFluor thermal shift assay, ERβ; format: binding
# [5] = system: pBIND-Gal4-ERRγ; assay: Cell based reporter (trans-activation) assay in HEK293E cells; details: luciferase reporter, Gal4-ERRγ and pACT-SRC2, 24 hours of compound treatment
# Method: A cell based reporter assay was used to determine the functional response of the ERRγ hits. Transfections were performed in HEK293E cells that were maintained in DMEM supplemented in glutamine and 10% FBS. Co-transfections of 4 μg of a luciferase reporter plasmid and 4 μg of each pBIND-Gal4-ERRγ and pACT-SRC2 plasmids per T-75 flask were done using Lipofectamine as per manufacturers instructions. Twenty-four hours post-transfection, the cells were seeded in 96-well plates at density of 50,000 cells per well in assay media (DMEM phenol free, 5% charcoal stripped FBS). […] After 24 hours of compound treatment, cells were lysed and treated with the Promega Dual-Glo system. Firefly Luciferase activity was read using a luminescence plate reader, and data were normalized against Renilla luciferase activity. Data were fitted using subroutines available from GraphPad.
# [6] = target: T4, ERRγ (Homo sapiens, UniProt P62508); assay: Isothermal titration calorimetry; format: binding; details: isothermal titration calorimetry
# T4 construct: 6His; made in house; host or cells: E. coli BL21(DE3)
# T4 sequence (P62508 229-458): T1 sequence (P62508 229-458)
# Method: The heat of interaction of the ligands with ERRγ molecules was measured by using the Omega titration calorimeter from Microcal Inc. In a typical titration, 1.4 mL of a 20 μM protein solution is titrated with a ligand solution of ˜0.4 mM concentration using a 100 μL syringe by ˜20 injections of 5-6 μL each. This syringe is also used to mix the reactants completely in the sample cell by rotating it at 400 rpm. For each injection, the area under the resulting peak is proportional to the heat of interaction, Q. Once this heat is corrected for the titrant dilution and normalized by the titrant solution concentration it becomes equal to the binding enthalpy, ΔHb, under nonsaturating conditions. The precision of the heat of each injection is about 0.5 μcal. One method of determining ΔHb is to average several intermediate peaks from the different sites. In addition to the binding enthalpies, one can obtain binding affinities, and overall stoichiometries of the complexes. The experimental calorimetric binding isotherm is the dependence of the total heat, Qr, (or dQrldX T) on the total concentration of ligand added, Xr. The above three parameters for each type of site are determined iteratively using the Marquardt algorithms as described previously.
# Chain of ERβ (Q92731 whole entry, species assumed, the tested form may be a part): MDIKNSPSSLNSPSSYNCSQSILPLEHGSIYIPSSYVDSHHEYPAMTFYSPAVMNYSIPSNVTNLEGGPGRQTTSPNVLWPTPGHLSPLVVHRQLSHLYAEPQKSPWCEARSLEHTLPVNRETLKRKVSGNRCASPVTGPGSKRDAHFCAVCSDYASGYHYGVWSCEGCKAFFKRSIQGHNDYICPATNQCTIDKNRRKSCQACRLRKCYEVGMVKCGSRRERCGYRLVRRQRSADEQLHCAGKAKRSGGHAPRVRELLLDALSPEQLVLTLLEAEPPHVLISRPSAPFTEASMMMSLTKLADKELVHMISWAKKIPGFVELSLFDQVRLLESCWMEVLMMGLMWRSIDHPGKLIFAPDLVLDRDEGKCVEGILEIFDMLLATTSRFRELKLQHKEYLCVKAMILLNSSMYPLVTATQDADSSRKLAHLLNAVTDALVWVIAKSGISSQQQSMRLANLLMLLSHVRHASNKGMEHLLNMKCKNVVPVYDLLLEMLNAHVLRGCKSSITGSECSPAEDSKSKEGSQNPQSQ
smiles,measurement,setting,value
"Cc1cc(O)ccc1Cl [ClCH3Ph, 4-chloro, 3-methyl phenol]","ΔTm, thermal stabilization of ERRγ",[1]; 100 μM test compound,3.9 °C
same,ΔTm at 100 µM,"[1]; pH 8, read-out: ΔTm, thermal stabilization of ERRγ, 100 μM test compound",4 to 5.7 °C
same,ΔTm at 100 µM,[2],0.1 °C
same,ΔTm at 100 µM,[3],0.2 °C
same,Kd,[4],3.05 µM
same,ΔTm at 100 µM,"[4]; pH 8, read-out: ΔTm, thermal stabilization of ERβ",2.4 °C
same,"Change in transcriptional activity in trans-activation cellular assay, in words",[5],not able to demonstrate
same,Binding enthalpy ΔHb,[6],~-21 kcal/mol
